For orientation: MIC means the least concentration at which growth counts as inhibited.

Molecules are shown by their SMILES. In brackets after ≈: the same amount, converted by molar mass. Read-outs that look alike come from different tables or passages of the source. Where only a bound is given, the exact number is not on record here.

The values that follow come from patent publication US4992449A, “7-(substituted)cycloalkylamino-1 -(substituted)-6-fluoro-1,4-dihydro-4-oxo-3-quinolinecarboxylic acids” (American Cyanamid Company, priority 1990, dated 1991).

Holding throughout (assay): In vitro antibacterial MIC, agar plate dilution
Holding throughout (assay type): cell-based

Test [1] relates to Pseudomonas aeruginosa LL-1244. As to conditions: Table II. On the procedure: (§1) The in vitro antimicrobial spectrum of the compounds of this invention were determined by the agar plate dilution method with Mueller-Hinton agar and an inoculum of each test organism of approximately 10^4 colony forming units delivered by the Steers replicating device. The minimal inhibitory concentration (MIC) in mcg/ml is defined as the lowest concentration of test compound that inhibited visible growth after 18 hours incubation at 35° C. Results are given in Table I, with the test compounds identified by the number of their hereinafter described examples

The subject of test [2] is Pseudomonas aeruginosa VGH 84-4. The settings on record: Table II. On the procedure:
as §1

For test [3], the system named is Serratia marcescens VGH 84-30. The settings on record: Table II. The protocol: as §1
In a further test the test system is Excherichia coli LL 311. The settings on record: Table II. The protocol: as §1
Test [4] relates to Escherichia coli ATCC 25922. The settings on record: Table II, Excherichia coli ATCC 25922. On the procedure: as §1
Test [5] concerns Proteus rettgeri CMC 84-41. The settings on record: Table II. On the procedure:
as §1

Test [6] deals with Excherichia coli CMC 84-11. The settings on record: Table II. The protocol: as §1
Test [7] deals with Staphylococcus aureus VGH 84-45. As to conditions: Table II. On the procedure: as §1
Test [8] concerns Streptococcus faecalis VGH 84-65. As to conditions: Table II. On the procedure:
as §1

For test [9], the system named is Staphylococcus aureus ATCC 29213. The settings on record: Table II. On the procedure: as §1
The subject of test [10] is Staphylococcus aureus Smith 1. As to conditions: Table II. The protocol:
as §1

Test [11] relates to Serratia marcescens K 84-18. As to conditions: Table II. On the procedure: as §1
Test [12] relates to Streptococcus faecalis UCI 85-19. As to conditions: Table II. On the procedure: as §1
Test [13] has as its system Morganella morganii CMC 84-37. As to conditions: Table II. On the procedure:
as §1

[14] abbreviates: Pseudomonas aeruginosa, LL1244, 18 h, read-out: MIC.
[15] abbreviates: Pseudomonas aeruginosa, VGH844, 18 h, read-out: MIC.
[16] abbreviates: Escherichia coli, ATCC25922, 18 h, read-out: MIC.
The mark [17] stands for this setting: Providencia rettgeri, CMC8441, 18 h, read-out: MIC.
[18] abbreviates: Enterococcus faecalis, VGH8465, 18 h, read-out: MIC.
[19] abbreviates: Staphylococcus aureus, ATCC29213, 18 h, read-out: MIC.
Setting [20] is: Staphylococcus aureus, SMITH1, 18 h, read-out: MIC.
[21] abbreviates: Enterococcus faecalis, UCI8519, 18 h, read-out: MIC.

Take `CCn1cc(C(=O)O)c(=O)c2cc(F)c(N[C@@H]3CCCC[C@H]3N)cc21` (racemic) [Example 7, Trans-(+/-)-7-[(2-Aminocyclohexyl)amino]1-ethyl-6-fluoro-1,4-dihydro-4-oxo-3-quinolinecarboxylic acid]: the MIC came to 128 µg/mL (≈ 368 µM) in [1] (setting [14]); 128 µg/mL (≈ 368 µM) in test [2] (setting [15]); 128 µg/mL (≈ 368 µM) in test [3] (VGH8430, 18 h, read-out: MIC); 32 µg/mL (≈ 92.1 µM) in the test with Excherichia coli LL 311 (18 h, read-out: MIC); 32 µg/mL (≈ 92.1 µM) in [4] (setting [16]); 128 µg/mL (≈ 368 µM) in test [5] (setting [17]). For the same molecule, the MIC in test [6] (18 h, read-out: MIC) was 16 µg/mL (≈ 46.1 µM); in test [7] (VGH8445, 18 h, read-out: MIC), 128 µg/mL (≈ 368 µM); in test [8] (setting [18]) it was 64 µg/mL (≈ 184 µM); in [9] (setting [19]) it was above 128 µg/mL; in test [10] (setting [20]), 16 µg/mL (≈ 46.1 µM); in [11] (K8418, 18 h, read-out: MIC), 64 µg/mL (≈ 184 µM). Further, the MIC in test [12] (setting [21]) came out at 128 µg/mL (≈ 368 µM); in test [13] (CMC8437, 18 h, read-out: MIC), 32 µg/mL (≈ 92.1 µM).
Regarding `CCn1cc(C(=O)O)c(=O)c2cc(F)c(N[C@@H]3CCCC[C@@H]3O)cc21` (relative stereo) [Example 5, Cis-7-[(2-Hydroxycyclohecxyl)amino]-1-ethyl-6-fluoro-1,4-dihydro-4-oxo-3-quinolinecarboxylic acid], the MIC in test [1] (setting [14]) was above 128 µg/mL; in test [2] (setting [15]), above 128 µg/mL; in test [3] (VGH8430, 18 h, read-out: MIC) it was above 128 µg/mL; in the test on Excherichia coli LL 311 (18 h, read-out: MIC), 16 µg/mL (≈ 45.9 µM); in test [4] (setting [16]) it was 32 µg/mL (≈ 91.9 µM); in [5] (setting [17]), 64 µg/mL (≈ 184 µM). Besides, the MIC in [6] (18 h, read-out: MIC) is 32 µg/mL (≈ 91.9 µM); in [7] (VGH8445, 18 h, read-out: MIC) it was 32 µg/mL (≈ 91.9 µM); in test [8] (setting [18]), above 128 µg/mL; in [9] (setting [19]), 64 µg/mL (≈ 184 µM); in test [10] (setting [20]) it was 8 µg/mL (≈ 23 µM); in [11] (K8418, 18 h, read-out: MIC) it was 64 µg/mL (≈ 184 µM). The MIC in [12] (setting [21]) was above 128 µg/mL; in test [13] (CMC8437, 18 h, read-out: MIC), 32 µg/mL (≈ 91.9 µM).
In the case of `CCn1cc(C(=O)O)c(=O)c2cc(F)c(N[C@@H]3CCCC[C@@H]3N)cc21` (relative stereo) [Example 6, Cis-7-[(2-Aminocyclohexyl)amino]-1-ethyl-6-fluoro-1,4-dihydro-4-oxo-3-quinolinecarboxylic acid], the MIC was 8 µg/mL (≈ 23 µM) in test [1] (setting [14]); 8 µg/mL (≈ 23 µM) in test [2] (setting [15]); 4 µg/mL (≈ 11.5 µM) in test [3] (VGH8430, 18 h, read-out: MIC); 0.5 µg/mL (≈ 1.44 µM) in the test on Excherichia coli LL 311 (18 h, read-out: MIC); 0.5 µg/mL (≈ 1.44 µM) in test [4] (setting [16]); 1 µg/mL (≈ 2.88 µM) in test [5] (setting [17]). In addition, the MIC was 0.5 µg/mL (≈ 1.44 µM) in [6] (18 h, read-out: MIC); 2 µg/mL (≈ 5.76 µM) in [7] (VGH8445, 18 h, read-out: MIC); 8 µg/mL (≈ 23 µM) in test [8] (setting [18]); 8 µg/mL (≈ 23 µM) in [9] (setting [19]); 0.5 µg/mL (≈ 1.44 µM) in [10] (setting [20]); 1 µg/mL (≈ 2.88 µM) in [11] (K8418, 18 h, read-out: MIC). The MIC in test [12] (setting [21]) is 8 µg/mL (≈ 23 µM); in test [13] (CMC8437, 18 h, read-out: MIC), 0.5 µg/mL (≈ 1.44 µM).
Take `CCn1cc(C(=O)O)c(=O)c2cc(F)c(N[C@@H]3CCCC[C@H]3N)cc21` (relative stereo) [Example 8, Trans-(-)-7-[(2-Aminocyclohexyl)amino]-1-ethyl-6-fluoro-1,4-dihydro-4-oxo-3-quinolinecarboxylic acid]: the MIC in test [1] (setting [14]) was above 128 µg/mL; in test [2] (setting [15]), above 128 µg/mL; in test [3] (VGH8430, 18 h, read-out: MIC), 128 µg/mL (≈ 368 µM); in the test on Excherichia coli LL 311 (18 h, read-out: MIC) it was 32 µg/mL (≈ 92.1 µM); in test [4] (setting [16]), 32 µg/mL (≈ 92.1 µM); in test [5] (setting [17]), 128 µg/mL (≈ 368 µM). Also, the MIC in test [6] (18 h, read-out: MIC) is 16 µg/mL (≈ 46.1 µM); in test [7] (VGH8445, 18 h, read-out: MIC), 128 µg/mL (≈ 368 µM); in test [8] (setting [18]) it was 64 µg/mL (≈ 184 µM); in [9] (setting [19]) it was 128 µg/mL (≈ 368 µM); in test [10] it was 16.00 µg/mL (≈ 46.1 µM); in [11] (K8418, 18 h, read-out: MIC), 32 µg/mL (≈ 92.1 µM). In addition, the MIC in [12] (setting [21]) turned out to be 128 µg/mL (≈ 368 µM); in [13] (CMC8437, 18 h, read-out: MIC) it was 32 µg/mL (≈ 92.1 µM).
Turning to `CCn1cc(C(=O)O)c(=O)c2cc(F)c(N[C@@H]3CCCC[C@H]3N)cc21` (relative stereo) [Example 9, Trans-(+)-7-[(2-Aminocyclohexyl)amino]-1-ethyl-6-fluoro-1,4-dihydro-4-oxo-3-quinolinecarboxylic acid], the MIC in test [1] was 128.00 µg/mL (≈ 368 µM); in test [2] it was 128.00 µg/mL (≈ 368 µM); in test [3], 128.00 µg/mL (≈ 368 µM); in the test on Excherichia coli LL 311, 32.00 µg/mL (≈ 92.1 µM); in test [4] it was 32.00 µg/mL (≈ 92.1 µM); in test [5], 128.00 µg/mL (≈ 368 µM). For the same molecule, the minimal inhibitory concentration (MIC) is 16.00 µg/mL (≈ 46.1 µM) in test [6]; 128.00 µg/mL (≈ 368 µM) in [7]; 64.00 µg/mL (≈ 184 µM) in test [8]; above 128.00 µg/mL in test [9]; 128.00 µg/mL (≈ 368 µM) in [10]; 32.00 µg/mL (≈ 92.1 µM) in test [11]. Also, the MIC came to 128.00 µg/mL (≈ 368 µM) in test [12] and 32.00 µg/mL (≈ 92.1 µM) in [13].
With `CCn1cc(C(=O)O)c(=O)c2cc(F)c(N[C@@H]3CCCC[C@@H]3NC)cc21` (relative stereo) [Example 10], the MIC in test [1] (setting [14]) worked out at 128 µg/mL (≈ 354 µM); in test [2] (setting [15]), 128 µg/mL (≈ 354 µM); in test [3] (VGH8430, 18 h, read-out: MIC), 32 µg/mL (≈ 88.5 µM); in the test on Excherichia coli LL 311 (18 h, read-out: MIC), 4 µg/mL (≈ 11.1 µM); in [4] (setting [16]), 8 µg/mL (≈ 22.1 µM); in test [5] (setting [17]), 32 µg/mL (≈ 88.5 µM). In addition, the MIC in test [6] (18 h, read-out: MIC) came out at 4 µg/mL (≈ 11.1 µM); in test [7] (VGH8445, 18 h, read-out: MIC), 4 µg/mL (≈ 11.1 µM); in [8] (setting [18]) it was 32 µg/mL (≈ 88.5 µM); in test [9] (setting [19]) it was 8 µg/mL (≈ 22.1 µM); in test [10] (setting [20]), 2 µg/mL (≈ 5.53 µM); in [11] (K8418, 18 h, read-out: MIC), 8 µg/mL (≈ 22.1 µM). The MIC in test [12] (setting [21]) stood at 32 µg/mL (≈ 88.5 µM); in test [13] (CMC8437, 18 h, read-out: MIC), 8 µg/mL (≈ 22.1 µM).
